≈ marks a conversion by molar mass, not a printed value. Like-named read-outs stand apart in the source and are kept apart here.
Legend:
[1] = set-up: method as in PMID 33480547; conditions: black bears, orally at 25 mg.kg^−1; cited from earlier work
[2] = Fecal elimination of fluralaner after oral administration, Fossa; format: in vivo, Cryptoprocta ferox; conditions: Fossa n = 1
Method: (§1) Based on the species present at the Paris Zoo, the animals selected to be part of the study are described in Table 1.
(§2) Each individual received 1–3 tablets of fluralaner (Bravecto®, formulations from 112.5 mg to 1,400 mg per tablet), based on the dose determined (Table 2) and the actual BW of the animal on day 0 (D0). Tablets were administered with the food. Tablets were not divided, according to the summary of product characteristics and the dose administered was adjusted as closely as possible to the theoretical dose calculated. The recommended bracket doses (25–56 mg/kg in a 20-kg dog) were used as a guideline (adjusted to the body weight of the animals) to ensure that the actual dose administered would remain in the acceptable margin. For instance, for the Iberian Wolf: using the dose range 25–56 mg/kg gave a D-reference of [500–1,120] mg, thus c = D-ref/P-ref = [0.76–1.69], i.e., D-target = [763–1,698] mg, resulting in a reference range of [21.9–48.6] mg.kg^−1. The actual doses administered were between 28 and 30 mg.kg^−1. This was checked for all species.
(§3) Feces were sampled on the floor, in priority on concrete ground in indoor facilities when animals were isolated. Fecal sampling was performed by keepers with gloves, transferred to sterile vials, then saved at −80°C until transfer to the lab.
(§4) For feces analysis, well-homogenized samples were weighed and dried at 40°C overnight to eliminate water. 200 mg of the dried sample were weighed, 80 μL of IS solution (0.5 μg/mL solution), 0.52 mL of water, 200 mg QuEChERS salts and 1 mL of acetonitrile were added in a 5 mL plastic centrifuge tube. The sample was then mixed well by vortexing for 2 min and then centrifuged at 12,000 rpm for 5 min.
(§5) The upper clear layer solutions were transferred to auto-sampler vials and placed in the auto-sampler at 10°C for LC–MS/MS analysis. All results are reported in μg.kg^−1 dry weight (dw).
(§6) All pharmacokinetic data were computed using a non-linear model and “PK solver” in Microsoft-excel®. This approach has been used by Kilp et al. ([21]) and considered satisfactory by comparison with a standard PK software such as WinNonLIn®.
(§7) Only Lion and Mountain lion data (3 individuals+negative control for each species) are presented in Figure 2 as mean ± SD of the fecal concentration of fluralaner vs. time post administration. When data were LOD < Data<LOQ, an average value of 4 has been used (for graphical and PK analysis purposes). When concentrations were < LOD, ½ LOD value was used for the same purposes.

[3] = Fecal elimination of fluralaner after oral administration, European otter; format: in vivo, Lutra lutra; conditions: European otter n = 1
Method: as §1, §2, §3, §4, §5, §6, §7

[4] = set-up: method as in PMID 33407820; conditions: wombats, pour on, doses of 25 or 85 mg.kg^−1; cited from earlier work
[5] = cited from earlier work
[6] = Fecal elimination of fluralaner after oral administration, Iberian wolf; format: in vivo, Canis lupus; conditions: Iberian wolf n = 1
Method: as §1, §2, §3, §4, §5, §6, §7

[7] = tested on: sarcoptic mange; set-up: method as in PMID 30895701; conditions: Raccoon dogs, one oral dose; cited from earlier work
[8] = set-up: method as in ref 27 = [27]; 27. VSDB Veterinary substances DataBase consulted on June 1st, ( 2022 ) Available at: http://sitem.herts.ac.uk/aeru/vsdb/index.htm; conditions: VSDB; cited from earlier work
[9] = tested on: Daphnia magna; set-up: method as in ref 10 = [10]; 10. CVMP ( 2017 ) CVMP assessment report for EXZOLT (EM EA/V/C/004344/0000), EMA/377159/2017, Available at: https://www.ema.europa.eu/en/documents/assessment-report/exzolt-epar-public-assessment-repor; conditions: cited from earlier work
[10] = tested on: honey bees; set-up: method as in ref 10 = [10]; 10. CVMP ( 2017 ) CVMP assessment report for EXZOLT (EM EA/V/C/004344/0000), EMA/377159/2017, Available at: https://www.ema.europa.eu/en/documents/assessment-report/exzolt-epar-public-assessment-repor; conditions: cited from earlier work
[11] = cited from earlier work; remark: listed apart in the source
[12] = tested on: dog and cat fleas; conditions: cited from earlier work
[13] = set-up: method as in PMID 33733534; conditions: cited from earlier work
[14] = Fecal elimination of fluralaner after oral administration, Lion; format: in vivo, Panthera leo
Method: as §1, §2, §3, §4, §5, §6, §7

[15] = cited from earlier work; remark: listed apart in the source
[16] = Fecal elimination of fluralaner after oral administration, Mountain lion; format: in vivo, Puma concolor
Method: as §1, §2, §3, §4, §5, §6, §7

[17] = Fecal elimination of fluralaner after oral administration, Jaguar; format: in vivo, Panthera onca; conditions: Jaguar n = 1
Method: as §1, §2, §3, §4, §5, §6, §7

[18] = Fecal elimination of fluralaner after oral administration, South American coati; format: in vivo, Nasua nasua; conditions: South American coati n = 1
Method: as §1, §2, §3, §4, §5, §6, §7

[19] = Fecal elimination of fluralaner after oral administration, Suricate; format: in vivo, Suricatta suricatta; conditions: feces, Suricate n = 1
Method: as §1, §2, §3, §4, §5, §6, §7

[20] = set-up: method as in PMID 36265636; conditions: treated dogs; cited from earlier work
[21] = Oral Bravecto in zoo carnivores, all treated animals (tolerance, fecal residues); format: in vivo
Method: as §1, §2, §3

[22] = set-up: method as in PMID 28103942; conditions: 221 dogs treated; cited from earlier work
[23] = fecal elimination, oral 26.3 mg.kg^−1
[24] = fecal elimination, oral 36.8 mg.kg^−1
[25] = fecal elimination, oral 28.6 mg.kg^−1
[26] = fecal elimination, Lion n = 3, mean ± SD, oral 16.0–24.1 mg.kg^−1
[27] = feces, Lion n = 3, mean ± SD, oral 16.0–24.1 mg.kg^−1
[28] = fecal elimination, Mountain lion n = 3, mean ± SD, oral 20.8–25.0 mg.kg^−1
[29] = feces, Mountain lion n = 3, mean ± SD, oral 20.8–25.0 mg.kg^−1
[30] = fecal elimination, oral 34.5 mg.kg^−1
[31] = fecal elimination, oral 52.1 mg.kg^−1

Cc1cc(C2=NOC(c3cc(Cl)cc(Cl)c3)(C(F)(F)F)C2)ccc1C(=O)NCC(=O)NCC(F)(F)F (stereo not shown) [fluralaner, Fluralaner]
Half-life [1]: 118 h | MRT [2, 23]: 24 h | t1/2 [2, 23]: 72 h | Cmax ([2]; feces, Bravecto tablet oral with food, 26.3 mg.kg^−1, rough estimate, residues in control animal in same cage): 370,295 μg.kg-^1 dry weight | AUC (D0-D112) ([2]; feces, oral 26.3 mg.kg^−1): 1,373,277 d* μg.kg-^1 dry weight | AUC(0-infini) ([2]; feces, oral 26.3 mg.kg^−1): 1,373,579 d* μg.kg-^1 dry weight | Last detection day ([2]; feces, oral 26.3 mg.kg^−1): 35 days | tmax ([2]; feces, oral 26.3 mg.kg^−1, rough estimate): 24 h | MRT [3, 24]: 384 h | t1/2 [3, 24]: 48 h | Cmax ([3]; feces, Bravecto tablet oral with food, 36.8 mg.kg^−1, rough estimate): 2,137 μg.kg-^1 dry weight | AUC (D0-D112) ([3]; feces, oral 36.8 mg.kg^−1): 41,301 d* μg.kg-^1 dry weight | AUC(0-infini) ([3]; feces, oral 36.8 mg.kg^−1): 41,354 d* μg.kg-^1 dry weight | Last detection day ([3]; feces, oral 36.8 mg.kg^−1): 42 days | tmax ([3]; feces, oral 36.8 mg.kg^−1, rough estimate): 170 h | Safety [4]: safe | Effect of food on bioavailability ([5]; dogs fed prior to the administration of the drug): doubled | Half-life ([5]; dogs, oral administration): 264 to 312 h | Bioavailability, topical administration ([5]; dogs, topical): 22–25% | MRT [6, 25]: 140 h | t1/2 [6, 25]: 120 h | Cmax ([6]; feces, Bravecto tablet oral with food, 28.6 mg.kg^−1, rough estimate): 620 μg.kg-^1 dry weight | AUC (D0-D112) ([6]; feces, oral 28.6 mg.kg^−1): 7,218 d* μg.kg-^1 dry weight | AUC(0-infini) ([6]; feces, oral 28.6 mg.kg^−1): 7,260 d* μg.kg-^1 dry weight | Last detection day ([6]; feces, oral 28.6 mg.kg^−1): 31 days | tmax ([6]; feces, oral 28.6 mg.kg^−1, rough estimate): 24 h | Time to cure from sarcoptic mange [7]: 7 days | Hydrolysis [8]: not degraded by hydrolysis | Lipophilicity [8]: lipophilic | LC50 ([9]; Daphnia magna, assessment report for EXZOLT): 0.047 µg/mL (≈ 0.0845 µM) | No Observed Effect Concentration (NOEC) for reproduction ([9]; Daphnia magna): 0.047 µg/L | Toxicity classification ([9]; aquatic invertebrates (Daphnia magna)): highly toxic | Toxicity classification [10]: highly toxic | DT50 in soil ([11]; CVMP assessment report): ~1,000 days | DT50 in soil ([11]; VSDB): 60 days | DT50 in aquatic environments ([11]; aerobic waters): 3 to 4 days | DT50 in soil ([11]; sandy loams): up to 989 days | DT50 in sediments ([11]; sediments): 112 to 195 days | Efficacy period ([12]; dogs and cats): 12 week | Duration of insecticidal effect on dog and cat fleas ([12]; reference not given): 12 weeks | Protein-bound [13]: > 99% | MRT [14, 26]: 190 ± 24 h | t1/2 [14, 26]: 288 ± 24 h | Cmax ([14]; feces, Lion n = 3, mean ± SD, Bravecto tablets oral with food, 16.0–24.1 mg.kg^−1, rough estimate): 44,880 ± 28,616 μg.kg-^1 dry weight | AUC (D0-D112) [14, 27]: 232,796±95,614 d* μg.kg-^1 dry weight | AUC(0-infini) [14, 27]: 234,203±95,339 d* μg.kg-^1 dry weight | Last detection day ([14]; feces, Lion n = 3, oral 16.0–24.1 mg.kg^−1): 89 days | tmax ([14]; feces, Lion n = 3, oral 16.0–24.1 mg.kg^−1, rough estimate): 24 h | Administered dose eliminated unchanged in the feces [15]: 90% | Administered dose eliminated unchanged in the feces ([15]; rats, dogs and chickens): up to 90% | Eliminated via the feces as the unchanged compound ([15]; reference not given): > 90% | MRT [16, 28]: 72 ± 24 h | t1/2 [16, 28]: 140 ± 24 h | Cmax ([16]; feces, Mountain lion n = 3, mean ± SD, Bravecto tablets oral with food, 20.8–25.0 mg.kg^−1, rough estimate): 12,909 ± 4,954 μg.kg-^1 dry weight | AUC (D0-D112) [16, 29]: 54,158±19,755 d* μg.kg-^1 dry weight | AUC(0-infini) [16, 29]: 54,786±19,755 d* μg.kg-^1 dry weight | Last detection day ([16]; feces, Mountain lion n = 3, oral 20.8–25.0 mg.kg^−1): 49 days | tmax ([16]; feces, Mountain lion n = 3, oral 20.8–25.0 mg.kg^−1, rough estimate): 24 h | MRT [17, 30]: 360 h | t1/2 [17, 30]: 190 h | Cmax ([17]; feces, Bravecto tablets oral with food, 34.5 mg.kg^−1, rough estimate): 16,089 μg.kg-^1 dry weight | AUC (D0-D112) ([17]; feces, oral 34.5 mg.kg^−1): 145,337 d* μg.kg-^1 dry weight | AUC(0-infini) ([17]; feces, oral 34.5 mg.kg^−1): 145,752 d* μg.kg-^1 dry weight | Last detection day ([17]; feces, oral 34.5 mg.kg^−1): 72 days | tmax ([17]; feces, oral 34.5 mg.kg^−1, rough estimate): 170 h | MRT [18, 31]: 912 h | t1/2 [18, 31]: 624 h | Cmax ([18]; feces, Bravecto tablet oral with food, 52.1 mg.kg^−1, rough estimate): 453 μg.kg-^1 dry weight | AUC (D0-D112) ([18]; feces, oral 52.1 mg.kg^−1): 7,688 d* μg.kg-^1 dry weight | AUC(0-infini) ([18]; feces, oral 52.1 mg.kg^−1): 8,998 d* μg.kg-^1 dry weight | Last detection day ([18]; feces, oral 52.1 mg.kg^−1): 82 days | tmax ([18]; feces, oral 52.1 mg.kg^−1, rough estimate): 24 h | Cmax ([19]; Bravecto tablet oral with food, 125 mg.kg^−1, rough estimate, residues in control animal in same cage): 15 μg.kg-^1 dry weight | AUC (D0-D112) ([19]; oral 125 mg.kg^−1): 105 d* μg.kg-^1 dry weight | Last detection day ([19]; oral 125 mg.kg^−1): 14 days | tmax ([19]; oral 125 mg.kg^−1, rough estimate): 336 h | Measured values in urine samples [20]: 1 µg/L | Adverse reaction during the course of the study ([21]; all animals treated, oral Bravecto tablets, allometrically scaled dose): No adverse reaction was noted | Concentrations detected in fecal samples throughout the study ([21]; feces, highest value): up to 44,000 μg/kg | Duration of elimination in feces as an active substance ([21]; our study): up to 3 months | Dogs displaying alopecia [22]: 4% | Dogs displaying vomiting [22]: 6%
